± gives the expanded uncertainty stated by the source.
Conditions: 101.33 kPa, Liquid; for viscosity: Capillary tube (Ostwald / Ubbelohde) method; for mass density: Vibrating tube method

Row | viscosity (283.15 K) | viscosity (293.15 K) | viscosity (303.15 K) | viscosity (313.15 K) | viscosity (323.15 K) | viscosity (333.15 K) | viscosity (343.15 K) | viscosity (353.15 K) | viscosity (363.15 K) | viscosity (373.15 K) | mass density (283.15 K) | mass density (298.15 K) | mass density (323.15 K) | mass density (348.15 K) | SMILES
1 | 853 ± 94 mPa·s | 378 ± 40 mPa·s | 192 ± 20 mPa·s | 108 ± 11 mPa·s | 66.8 ± 6.8 mPa·s | 44.2 ± 4.5 mPa·s | 30.8 ± 3.1 mPa·s | 22.3 ± 2.2 mPa·s | 16.6 ± 1.7 mPa·s | 12.5 ± 1.3 mPa·s |  |  |  |  | CCCC[n+]1ccn(C)c1.O=S(=O)([O-])C(F)(F)C(F)C(F)(F)F (stereo not drawn)
2 | 1319 ± 150 mPa·s | 625 ± 68 mPa·s | 330 ± 35 mPa·s | 191 ± 20 mPa·s | 118 ± 12 mPa·s | 77.4 ± 7.8 mPa·s | 52.9 ± 5.3 mPa·s | 37.2 ± 3.8 mPa·s | 26.7 ± 2.7 mPa·s | 19.3 ± 1.9 mPa·s | 1075 ± 2 kg/m3 | 1063 ± 2 kg/m3 | 1044 ± 2 kg/m3 | 1025 ± 2 kg/m3 | CCCCCCCCCCCCCC[P+](CCCCCC)(CCCCCC)CCCCCC.O=S(=O)([O-])C(F)(F)C(F)OC(F)(F)C(F)(F)F
3 | 2512 ± 300 mPa·s | 1103 ± 120 mPa·s | 539 ± 58 mPa·s | 289 ± 30 mPa·s | 167 ± 17 mPa·s | 103 ± 10 mPa·s | 66.6 ± 6.7 mPa·s | 45 ± 4.5 mPa·s | 31.5 ± 3.2 mPa·s | 22.6 ± 2.3 mPa·s | 1082 ± 2 kg/m3 | 1070 ± 2 kg/m3 | 1052 ± 2 kg/m3 | 1034 ± 2 kg/m3 | CCCCCCCCCCCCCC[P+](CCCC)(CCCC)CCCC.O=S(=O)([O-])C(F)(F)C(F)C(F)(F)F
4 | 626 ± 68 mPa·s | 298 ± 31 mPa·s | 159 ± 16 mPa·s | 93 ± 9 mPa·s | 59 ± 6 mPa·s | 39.8 ± 4 mPa·s | 28.2 ± 2.8 mPa·s | 20.7 ± 2.1 mPa·s | 15.6 ± 1.6 mPa·s | 11.9 ± 1.2 mPa·s |  |  |  |  | CCCCn1cc[n+](C)c1.O=S(=O)([O-])C(F)(F)C(F)OC(F)(F)F (stereo not drawn)
5 | 1021 ± 110 mPa·s | 444 ± 48 mPa·s | 218 ± 23 mPa·s | 119 ± 12 mPa·s | 71.2 ± 7.2 mPa·s | 45.9 ± 4.6 mPa·s | 31.6 ± 3.2 mPa·s | 22.9 ± 2.3 mPa·s | 17.3 ± 1.7 mPa·s | 13.5 ± 1.4 mPa·s |  |  |  |  | CCCCn1cc[n+](C)c1.O=S(=O)([O-])C(F)(F)C(F)OC(F)(F)C(F)(F)F (stereo not drawn)

Reference: the NIST ThermoML archive (doi:10.1016/j.fluid.2006.01.026)
